Test results: ChEMBL document CHEMBL5579834 (Eur J Med Chem, 2024)

Columns and labels:
Ebolavirus [1] = assay: Antiviral activity against HIV-based lentiviral pseudotyped Ebolavirus harboring mucin domain deleted GP infected in HEK293T cells assessed as inhibition of viral entry preincubated with virus for 1 hr followed by cell infection and measured after 48 hrs by luminescence assay; type: functional, organism-based; conditions: Orthoebolavirus, HEK-293T
Marburgvirus = assay: Antiviral activity against HIV-based lentiviral pseudotyped Marburgvirus harboring mucin domain deleted GP infected in HEK293T cells assessed as inhibition of viral entry preincubated with virus for 1 hr followed by cell infection and measured after 48 hrs by luminescence assay; type: functional, organism-based; conditions: Orthomarburgvirus, HEK-293T
[2] = Selectivity index, ratio of CC50 for HEK293T cells to IC50 for antiviral activity against HIV-based lentiviral pseudotyped Ebolavirus harboring mucin domain deleted GP infected in HEK293T cells assessed as inhibition of viral entry; type: toxicity, cell-based; conditions: human, read-out: Ratio CC50/IC50
[3] = Selectivity index, ratio of CC50 for HEK293T cells to IC50 for antiviral activity against HIV-based lentiviral pseudotyped Marburgvirus harboring mucin domain deleted GP infected in HEK293T cells assessed as inhibition of viral entry; type: toxicity, cell-based; conditions: human, read-out: Ratio CC50/IC50
Ebolavirus [4] = assay: Antiviral activity against pseudotyped Ebolavirus harboring GP; type: functional, organism-based; conditions: Orthoebolavirus

CN1CCN(CCCC(=O)O[C@H]2C(C)(C)[C@H]3CC[C@]2(C)C3)CC1
IC50 (Ebolavirus [1]): 3.1 µM
IC50 (Marburgvirus): 20.7 µM

CC1(C)[C@H]2CC[C@](C)(C2)[C@H]1OC(=O)CN1CCOCC1
IC50 (Ebolavirus [1]): 13 µM
selectivity ratio [2]: 22
IC50 (Marburgvirus): 213 µM
selectivity ratio [3]: 1

CN1CCN(CC(=O)O[C@H]2C(C)(C)[C@H]3CC[C@]2(C)C3)CC1
IC50 (Ebolavirus [1]): 20.4 µM
IC50 (Marburgvirus): 27.5 µM

CCN1CCN(CCC(=O)O[C@H]2C(C)(C)[C@H]3CC[C@]2(C)C3)CC1
IC50 (Ebolavirus [1]): 8.1 µM
selectivity ratio [2]: 44
IC50 (Marburgvirus): 25 µM
selectivity ratio [3]: 14

CC1(C)[C@H]2CC[C@](C)(C2)[C@H]1OC(=O)CCCN1CCCCC1
IC50 (Ebolavirus [1]): 1.9 µM
IC50 (Marburgvirus): 13 µM

CN1CCN(CCC(=O)O[C@H]2C(C)(C)[C@H]3CC[C@]2(C)C3)CC1
IC50 (Ebolavirus [1]): 10.1 µM
selectivity ratio [2]: 45
IC50 (Marburgvirus): 29 µM
selectivity ratio [3]: 16

C[C@@H]1[C@H]2C[C@@H](C[C@H]1OC(=O)CCN1CCN(c3ccccc3)CC1)C2(C)C
IC50 (Ebolavirus [1]): 54 µM
selectivity ratio [2]: 2
IC50 (Marburgvirus): 27 µM
selectivity ratio [3]: 4

C[C@@H]1[C@H]2C[C@@H](C[C@H]1OC(=O)CCCN1CCN(c3ccccc3)CC1)C2(C)C
IC50 (Ebolavirus [1]): 7.8 µM
selectivity ratio [2]: 8
IC50 (Marburgvirus): 18 µM
selectivity ratio [3]: 3

C[C@@H]1[C@H]2C[C@@H](C[C@H]1OC(=O)CCN1CCN(C)CC1)C2(C)C
IC50 (Ebolavirus [1]): 4.9 µM
IC50 (Marburgvirus): 13.9 µM

CCN1CCN(CCCC(=O)O[C@H]2C(C)(C)[C@H]3CC[C@]2(C)C3)CC1
IC50 (Ebolavirus [1]): 2.4 µM
IC50 (Marburgvirus): 11.3 µM

CCN1CCN(S(=O)(=O)C[C@]23CC[C@H](CC2=O)C3(C)C)CC1
IC50 (Ebolavirus [4]): 91 µM

C[C@@H]1[C@H]2C[C@@H](C[C@H]1OC(=O)CN1CCN(C)CC1)C2(C)C
IC50 (Ebolavirus [1]): 4.8 µM
IC50 (Marburgvirus): 47.6 µM

C[C@@H]1[C@H]2C[C@@H](C[C@H]1OC(=O)CN1CCN(c3ccccc3)CC1)C2(C)C
IC50 (Ebolavirus [1]): 9 µM
selectivity ratio [2]: 6
IC50 (Marburgvirus): 25 µM
selectivity ratio [3]: 2

CC1CCN(CC(=O)O[C@H]2C(C)(C)[C@H]3CC[C@]2(C)C3)CC1
IC50 (Ebolavirus [1]): 20.5 µM
IC50 (Marburgvirus): 20.4 µM

CC1(C)[C@H]2CC[C@](C)(C2)[C@H]1OC(=O)CCCN1CCN(c2ccccc2)CC1
IC50 (Ebolavirus [1]): 0.54 µM
selectivity ratio [2]: 22
IC50 (Marburgvirus): 6 µM
selectivity ratio [3]: 10

CC1(C)[C@H]2CC[C@](C)(C2)[C@H]1OC(=O)CCN1CCN(c2ccccc2)CC1
IC50 (Ebolavirus [1]): 10 µM
selectivity ratio [2]: 2
IC50 (Marburgvirus): 7.3 µM
selectivity ratio [3]: 3

CCN1CCN(CC(=O)O[C@H]2C(C)(C)[C@H]3CC[C@]2(C)C3)CC1
IC50 (Ebolavirus [1]): 9.1 µM
IC50 (Marburgvirus): 30.1 µM

CC1(C)[C@H]2CC[C@](C)(C2)[C@H]1OC(=O)CN1CCCCC1
IC50 (Ebolavirus [1]): 17.1 µM
selectivity ratio [2]: 13
IC50 (Marburgvirus): 164 µM
selectivity ratio [3]: 1

CC1(C)[C@@H]2CC[C@@]1(CS(=O)(=O)N1CCCCC1)C(=O)C2
IC50 (Ebolavirus [4]): 60 µM

C[C@@H]1[C@H]2C[C@@H](C[C@H]1OC(=O)CCN1CCCCC1)C2(C)C
IC50 (Ebolavirus [1]): 14.3 µM
selectivity ratio [2]: 23
IC50 (Marburgvirus): 24 µM
selectivity ratio [3]: 13

CC1CCN(CCC(=O)O[C@H]2C(C)(C)[C@H]3CC[C@]2(C)C3)CC1
IC50 (Ebolavirus [1]): 3.9 µM
selectivity ratio [2]: 48
IC50 (Marburgvirus): 22 µM
selectivity ratio [3]: 8

CC1(C)[C@H]2CC[C@](C)(C2)[C@H]1OC(=O)CCCN1CCOCC1
IC50 (Ebolavirus [1]): 6.5 µM
selectivity ratio [2]: 40
IC50 (Marburgvirus): 68 µM
selectivity ratio [3]: 3

CC1(C)[C@H]2CC[C@](C)(C2)[C@H]1OC(=O)CCN1CCCCC1
IC50 (Ebolavirus [1]): 17 µM
selectivity ratio [2]: 20
IC50 (Marburgvirus): 31 µM
selectivity ratio [3]: 11

CC1(C)[C@H]2CC[C@](C)(C2)[C@H]1OC(=O)CN1CCN(c2ccccc2)CC1
IC50 (Ebolavirus [1]): 5.8 µM
selectivity ratio [2]: 17
IC50 (Marburgvirus): 56 µM
selectivity ratio [3]: 1

C[C@@H]1[C@H]2C[C@@H](C[C@H]1OC(=O)CCCN1CCN(C)CC1)C2(C)C
IC50 (Ebolavirus [1]): 2.8 µM
selectivity ratio [2]: 58
IC50 (Marburgvirus): 24 µM
selectivity ratio [3]: 6

CC1(C)[C@@H]2CC[C@@]1(CS(=O)(=O)N1CCOCC1)C(=O)C2
IC50 (Ebolavirus [4]): 0.9 µM

C[C@@H]1[C@H]2C[C@@H](C[C@H]1OC(=O)CN1CCOCC1)C2(C)C
IC50 (Ebolavirus [1]): 106 µM
selectivity ratio [2]: 1

CN1CCN(S(=O)(=O)C[C@]23CC[C@H](CC2=O)C3(C)C)CC1
IC50 (Ebolavirus [4]): 540 µM

C[C@@H]1[C@H]2C[C@@H](C[C@H]1OC(=O)CCCN1CCCCC1)C2(C)C
IC50 (Ebolavirus [1]): 4 µM
selectivity ratio [2]: 30
IC50 (Marburgvirus): 9 µM
selectivity ratio [3]: 13

C[C@@H]1[C@H]2C[C@@H](C[C@H]1OC(=O)CN1CCCCC1)C2(C)C
IC50 (Ebolavirus [1]): 42 µM
selectivity ratio [2]: 7
IC50 (Marburgvirus): 107 µM
selectivity ratio [3]: 3

C[C@@H]1[C@H]2C[C@@H](C[C@H]1OC(=O)CCN1CCOCC1)C2(C)C
IC50 (Ebolavirus [1]): 57 µM
selectivity ratio [2]: 4
IC50 (Marburgvirus): 156 µM
selectivity ratio [3]: 1

C[C@@H]1[C@H]2C[C@@H](C[C@H]1OC(=O)CCCN1CCOCC1)C2(C)C
IC50 (Ebolavirus [1]): 21 µM
selectivity ratio [2]: 5
IC50 (Marburgvirus): 39 µM
selectivity ratio [3]: 2

CC1(C)[C@H]2CC[C@](C)(C2)[C@H]1OC(=O)CCN1CCOCC1
IC50 (Ebolavirus [1]): 57.9 µM
IC50 (Marburgvirus): 64.4 µM

CC1CCN(CCCC(=O)O[C@H]2C(C)(C)[C@H]3CC[C@]2(C)C3)CC1
IC50 (Ebolavirus [1]): 2.8 µM
IC50 (Marburgvirus): 26.4 µM

CN(C)CCOc1ccc(/C(=C(/CCCl)c2ccccc2)c2ccccc2)cc1 [TOREMIFENE]
IC50 (Ebolavirus [1]): 0.2 µM
IC50 (Marburgvirus): 0.7 µM
